Test [1] concerns cell cycle progression. The test can be described thus: Flow-cytometric cell cycle analysis (propidium iodide). The test is classed as cell-based. How it is done:
FIGS. 5A-5D: CFM-4 suppresses cell growth in part by elevating CARP-1 and diminishing cyclin B1 levels. In panel A, cells were treated with indicated agents for noted times, labeled with propidium iodide, and sorted by flow cytometry. Histogram and table below represent cell numbers in various phases of cell cycle. In panel B, cells were treated with indicated dose of CFM-4 for noted times, in panel C, cells were either untreated (−) or treated (+) with CFM-4 for noted dose and time, while in panel D, cells were either treated with vehicle control (DMSO) or with indicated agents for noted dose and time. The cell lysates (50 μg/lane) in panels B-D were analyzed by WB for levels of CARP-1, Cyclin B1, Cdh1, APC-2, CDKIs p21^WAF1/CIP1, p27^KIP1 and actin proteins as in methods.
CARP-1 is required for CFM-4-dependent cell growth inhibition. Because APC/C E3 ubiquitin ligase functions to regulate cell cycle and CFM-4 binds with CARP-1 to inhibit its binding with APC-2, it was next determined whether the SMIs interfere with cell cycle progression. […] The APC/C^Cdc20 E3 ubiquitin ligase regulates turnover of the mitotic cyclin B1 and Cdc20 during the G2M phase and exit to mitosis while APC/C^Cdh1 E3 ligase targets Cdc20 as well as SCF ligase to accomplish exit from mitosis and transition to G0/G1 phases. Attenuation of SCF ligase by APC/C^Cdh1, in turn, results in elevated levels of CDKIs p21^WAF1/CIP1 and p27^KIP1. […] To investigate this possibility it was determined whether CFM-4 binding with CARP-1 modulated CARP-1 levels. […] Levels of both the p21^WAF1/CIP1 and p27^KIP1 CDKIs were elevated when cells were exposed to CFM-4 for 0.5-1.0 h time periods (FIG. 5B). This may likely be due to the initial response of the cells to stress following exposure to CFM-4. […] This loss of CDKI expression could be due to attenuation of APC/C^Cdh1 activity following modest reduction in the Cdh1 levels as well as inability of CARP-1 to bind with APC-2 over prolonged periods of treatments with CFM-4. […]

Test [2] deals with apoptosis of HBC cells. Description: ELISA-based DNA fragmentation apoptosis assay. It counts as cell-based, human. How it is done: For apoptosis ELISA assay, 4−5×10^2 cells were seeded in 96-well plates and treated essentially as indicated in the MTT assay above. Untreated as well as treated cells were lysed, and levels of mono and oligo-nucleosomal DNA fragments in the lysates were determined by measuring optical density of each sample at 405 nm and 495 nm wavelengths. […] For TUNEL labeling, the cells were treated with various agents, fixed, labeled and photographed essentially as detailed in immuno-localization protocols described before (Zhang, L., Levi, E., Majumder, P., Yu, Y., Aboukameel, A., Du, J., Xu, H., Mohammad, R. M., Hatfield, J. S., Wali, A., Adsay, V., Majumdar, A. P. N., and Rishi, A. K. (2007) Mol. Cancer. Ther. 6(5), 1661-1672). […] Cell lysates derived from vehicle DMSO (Control) or CFM-4-treated cells were added to the wells that had immobilized fluorogenic caspase-3, caspase-8, caspase-9, or caspase-2 substrates. The fluorescence released from the activated caspase-dependent cleavage of respective substrate was detected by a plate reader at the excitation and emission wavelengths of 380 nm and 460 nm, respectively.
CFM-4 suppresses cell growth in part by inducing apoptosis: In light of the data in FIG. 5A showing significant accumulation of CFM-4-treated cells in the sub G0 phase, and the fact that cells undergoing apoptosis often accumulate in the sub G0 fractions, it was next ascertained the extent of apoptosis stimulation by these agents by utilizing an ELISA-based DNA fragmentation assay. […] The intrinsic, mitochondria-mediated and the extrinsic, extracellular receptor-activated, apoptosis signaling pathways are transduced by activation of various caspases that promote eventual breakdown of cellular proteins, organelles and plasma membrane. […] It was next determined whether apoptosis stimulation by CFM-4 involved activation of caspases 8 or 9 or both. […] The activation of caspases in the presence of CFM-4 was further profiled by utilizing a fluorescence-based quantitative assay as detailed in methods. […]

Test [3] relates to HBC, colon, prostate, pancreatic cancer, MPM and lymphoma cells. The test can be described thus: MTT cell viability assay, cancer cells. The test is classed as cell-based, human. How it is done:
Logarithmically growing cells were either untreated or treated with different agents for various time periods. The cells were lysed to prepare protein extracts. IP was carried out by incubating approximately 1 mg of the protein lysate with appropriate antibodies, and the immunoprecipitates or cell lysates were then electrophoresed on 9-12% SDS-polyacrylamide gels, and transferred to nitrocellulose membranes. The membranes were subsequently probed with various antibodies to determine expression/presence of the corresponding proteins. The cell growth inhibition was assessed by using MTT assay. Briefly, MTT (3-[4,5-Dimethylthiazol-2-yl]-2,5diphenyltetrazolium bromide) was dissolved in sterile 1×PBS to prepare a stock solution of 5 mg/ml. The solution was subsequently filtered through 0.2 μm filter and stored at 2-8° C. 4−5×10^2 cells were seeded in 96-well plates. After 72 h incubation with or without different agents, MTT stock solution was added to each culture being assayed to equal one tenth the original culture volume, followed by incubation of cells at 37° C. for another 2 h. At the end of the incubation, the media was removed and cells were treated with 100-200 μl of DMSO to solubilize the dye. The assessment of the live cells was derived by measuring the absorbance of the converted dye at wavelength of 570 nm.
To test whether CFMs that interfere with CARP-1 binding with APC-2 modulate cell growth, HBC, colon, prostate, pancreatic cancer, MPM and lymphoma cells, as well as the immortalized, mammary epithelial MCF-10A cells were utilized. The cells were either treated with vehicle (DMSO) or various doses of the respective compound for a period of 72 h, and percent of live/viable cells for each compound was determined relative to the untreated controls as described in Methods.
(Tetrazolium dyes change colour on reduction, which living cells bring about.)

The results in this text go back to patent publication US9598441B2, “Therapeutic compounds and methods” (Wayne State University, priority 2011, dated 2017).

As for `COc1cccc2c1C(=O)c1c(O)c3c(c(O)c1C2=O)C[C@@](O)(C(=O)CO)C[C@@H]3O[C@H]1C[C@H](N)[C@H](O)[C@H](C)O1` [ADR, adriamycin, reference compound], the “cell cycle effect (flow cytometry)” value in test [1] is on record as “induced G2M cell cycle arrest”. Moreover, the “apoptosis level (DNA fragmentation ELISA)” value (shortened to “apoptosis level”) in test [2] is “significantly elevated levels of apoptosis”.
Turning to `Cc1cc(Br)cc2c1NC(=O)/C2=C1\SC(=S)NC1=O` [CFM-1, (Z)-5-(5-bromo-7-methyl-2-oxoindolin-3-ylidene)-2-thioxothiazolidin-4-one], the “HBC cell growth / viability (MTT)” value in test [3] (HBC cells, 72 h) is “suppressed viabilities”. Further, in test [3] (MPM cells, 72 h), the “cell growth of MPM cells (MTT)” value was “elicited activity towards select MPM cells”. Further, the “cell cycle effect (flow cytometry)” value in test [1] is on record as “induced G2M cell cycle arrest”. Also, the “apoptosis level” value in test [2] is listed as “without significant increase in apoptosis”.
On to `O=C1N(Cc2ccccc2Cl)c2ccccc2C12NN=C(c1ccccc1)S2` (stereo not shown) [CFM-4, 1-(2-chlorobenzyl)-5′-phenyl-3′H-spiro[indoline-3,2′-[1,3,4]thiadiazol]-2-one], for which the “sensitivity of HBC cells compared with similar dose of CFM-1 and 5 (MTT)” value in test [3] (HBC cells, 20 μM dose) is given as “relative increased sensitivity”. Also, the “HBC cell growth / viability (MTT)” value in test [3] (HBC cells, 72 h) is given as “suppressed viabilities”. In addition, in test [1], the “cell cycle effect (flow cytometry)” value is listed as “induced G2M cell cycle arrest”. In addition, the “apoptosis level” value in test [2] was “significantly elevated levels of apoptosis”.
